The assay concerns the target T1, human apelin receptor (Homo sapiens, UniProt P35414).
T1 construct: expressed in transfected cells
T1 sequence (P35414 1-380): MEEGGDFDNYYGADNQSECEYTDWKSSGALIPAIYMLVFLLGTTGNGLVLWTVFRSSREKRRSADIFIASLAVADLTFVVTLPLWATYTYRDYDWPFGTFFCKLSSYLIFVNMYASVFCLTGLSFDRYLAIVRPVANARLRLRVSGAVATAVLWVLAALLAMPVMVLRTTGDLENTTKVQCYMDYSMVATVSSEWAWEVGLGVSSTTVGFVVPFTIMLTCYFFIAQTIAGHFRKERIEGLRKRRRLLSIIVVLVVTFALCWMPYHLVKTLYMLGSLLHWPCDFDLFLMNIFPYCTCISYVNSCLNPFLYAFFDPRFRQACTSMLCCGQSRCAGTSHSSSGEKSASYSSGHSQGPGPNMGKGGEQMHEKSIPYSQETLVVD
Briefly: Determination of agonism on the human apelin receptor by a calcium fluorescence assay (FLIPR). Format: cell-based. Conditions: HEK293 cells stably transfected with human apelin receptor and Giaq protein, Fluo-4 calcium fluorescence, read-out: EC50 (APJ agonism). A digest of the protocol:
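Agonist EC50s come from peak intracellular calcium transients recorded by FLIPR Tetra, scaled to the 1 μM apelin-13 maximum per plate. Test system: HEK293 stably transfected with human apelin receptor plus Giaq, Fluo-4-loaded (4 μM, 1 h, 37 °C, pH 7.4 buffer with probenecid); ≥7 concentrations, triplicates.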

As for `CCC(CC)n1c(Cc2cccs2)nc2cc(C(=O)N[C@@H](CC(C)C)C(=O)NC3CCN(CCc4ccccc4)CC3)ccc21` [Example 338, 1-(1-Ethyl-propyl)-2-thiophen-2-ylmethyl-1H-benzoimidazole-5-carboxylic acid [(S)-3-methyl-1-(1-phenethyl-piperidin-4-ylcarbamoyl)-butyl]-amide], the EC50 stood at 1590 nM.

For `CC(C)C[C@@H](CC(=O)O)NC(=O)c1ccc2c(c1)nc(Cc1cccs1)n2C1CCCCC1C` (stereo partly drawn) [Example 101, (S)-5-Methyl-3-{[1-(2-methyl-cyclohexyl)-2-thiophen-2-ylmethyl-1H-benzoimidazole-5-carbonyl]-amino}-hexanoic acid], the EC50 was 106 nM.

For the compound `CCC(CC)n1c(Cc2cccs2)nc2cc(C(=O)N[C@@H](CC(C)C)C(=O)N3CC[C@H](OCc4ccccc4)C3)ccc21` [Example 390, 1-(1-Ethyl-propyl)-2-thiophen-2-ylmethyl-1H-benzoimidazole-5-carboxylic acid [(S)-1-((S)-3-benzyloxy-pyrrolidine-1-carbonyl)-3-methyl-butyl]-amide], the concentration giving a half-maximal response (EC50) amounted to 10900 nM.

For `CCC(CC)n1c(Cc2cccs2)nc2cc(C(=O)N[C@@H](CC(C)C)C(=O)N(C)Cc3ccccc3)ccc21` [Example 263, 1-(1-Ethyl-propyl)-2-thiophen-2-ylmethyl-1H-benzoimidazole-5-carboxylic acid [(S)-1-(benzyl-methyl-carbamoyl)-3-methyl-butyl]-amide], the EC50 turned out to be 4300 nM.

As to `CCC(CC)n1c(Cc2ccccc2)nc2cc(C(=O)N[C@H](CC(=O)O)CC(C)C)ccc21` [Example 157, (S)-3-{[2-Benzyl-1-(1-ethyl-propyl)-1H-benzoimidazole-5-carbonyl]-amino}-5-methyl-hexanoic acid], the EC50 was determined as 10000 nM.

For `Cc1ccc(-n2c(Cc3cccs3)nc3cc(C(=O)N[C@@H](CC(C)C)C(=O)O)ccc32)cc1` [Example 115, (S)-4-Methyl-2-[(2-thiophen-2-ylmethyl-1-p-tolyl-1H-benzoimidazole-5-carbonyl)-amino]-pentanoic acid], the EC50 was determined as 34600 nM.

On to `CCC(CC)n1c(Cc2cccs2)nc2cc(C(=O)N[C@@H](CC(C)C)C(=O)NC3CCN(Cc4ccccc4)C3)ccc21` (stereo partly drawn) [Example 319, 1-(1-Ethyl-propyl)-2-thiophen-2-ylmethyl-1H-benzoimidazole-5-carboxylic acid [(S)-1-(1-benzyl-pyrrolidin-3-ylcarbamoyl)-3-methyl-butyl]-amide], for which the EC50 worked out at 1520 nM.

Turning to `CC(C)C[C@H](NC(=O)c1ccc2c(c1)nc(Cc1ccccc1)n2C1CCCCC1)C(=O)O` [Example 148, (S)-2-[(2-Benzyl-1-cyclohexyl-1H-benzoimidazole-5-carbonyl)-amino]-4-methyl-pentanoic acid], the EC50 amounted to 15000 nM.

`CCCC(CCO)NC(=O)c1ccc2c(c1)nc(Cc1cccs1)n2C(CC)CC` (single isomer, unassigned) [Example 471]: the EC50 was determined as 5020 nM.

In the case of `C[C@@H]1CCCC[C@H]1n1c(Cc2cccs2)nc2cc(C(=O)NC(CC3CCCCCC3)C(=O)O)ccc21` (stereo partly drawn) [Example 40, 3-Cycloheptyl-2-{[1-((1R,2R)-2-methyl-cyclohexyl)-2-thiophen-2-ylmethyl-1H-benzoimidazole-5-carbonyl]-amino}-propionic acid], the EC50 is 915 nM.

In the case of `CC(C)C[C@H](NC(=O)c1ccc2c(c1)nc(Cc1cccs1)n2C1CCCC1C)C(=O)O` (single isomer, unassigned) [Example 430], the EC50 was 1310 nM.

In the case of `CCC(CC)n1c(Cc2cccs2)nc2cc(C(=O)N[C@@H](CO)C3CCCCC3)ccc21` [Example 203, 1-(1-Ethyl-propyl)-2-thiophen-2-ylmethyl-1H-benzoimidazole-5-carboxylic acid ((R)-1-cyclohexyl-2-hydroxy-ethyl)-amide], the EC50 is 24700 nM.

Consider `CCC[C@@H](CO)NC(=O)c1ccc2c(c1)nc(Cc1cccs1)n2C(CC)CC` [Example 201, 1-(1-Ethyl-propyl)-2-thiophen-2-ylmethyl-1H-benzoimidazole-5-carboxylic acid ((S)-1-hydroxymethyl-butyl)-amide], for which the EC50 was 334 nM.

`CCC(CC)n1c(Cc2cccs2)nc2cc(C(=O)N[C@@H](CC(C)C)C(=O)N3CCCC(COC)C3)ccc21` (stereo partly drawn) [Example 378, 1-(1-Ethyl-propyl)-2-thiophen-2-ylmethyl-1H-benzoimidazole-5-carboxylic acid [(S)-1-(3-methoxymethyl-piperidine-1-carbonyl)-3-methyl-butyl]-amide]: the EC50 was 2440 nM.

Regarding `CCC(C)Cn1c(CC2CCCC2)nc2cc(C(=O)N[C@H](CC(=O)O)CC(C)C)ccc21` (stereo partly drawn) [Example 159, (S)-3-{[2-Cyclopentylmethyl-1-(2-methyl-butyl)-1H-benzoimidazole-5-carbonyl]-amino}-5-methyl-hexanoic acid], the EC50 was 15000 nM.

Regarding `CCC(CC)n1c(Cc2cccs2)nc2cc(C(=O)N[C@@H](CC(C)C)C(=O)NCCc3cccc(OC)c3)ccc21` [Example 360, 1-(1-Ethyl-propyl)-2-thiophen-2-ylmethyl-1H-benzoimidazole-5-carboxylic acid {(S)-1-[2-(3-methoxy-phenyl)-ethylcarbamoyl]-3-methyl-butyl}-amide], the EC50 was 21200 nM.

With `CCC[C@H](CO)NC(=O)c1ccc2c(c1)nc(Cc1cccs1)n2C(CC)CC` [Example 200, 1-(1-Ethyl-propyl)-2-thiophen-2-ylmethyl-1H-benzoimidazole-5-carboxylic acid ((R)-1-hydroxymethyl-butyl)-amide], the EC50 worked out at 8180 nM.

As for `CCC(CC)n1c(CC2CCCC2)nc2cc(C(=O)N[C@H](CC(=O)O)CC(C)C)ccc21` [Example 158, (S)-3-{[2-Cyclopentylmethyl-1-(1-ethyl-propyl)-1H-benzoimidazole-5-carbonyl]-amino}-5-methyl-hexanoic acid], the EC50 was 515 nM.

For the compound `CCC(CC)n1c(Cc2cccs2)nc2cc(C(=O)N[C@@H](CC(C)C)C(=O)N3CCSCC3)ccc21` [Example 217, 1-(1-Ethyl-propyl)-2-thiophen-2-ylmethyl-1H-benzoimidazole-5-carboxylic acid [(S)-3-methyl-1-(thiomorpholine-4-carbonyl)-butyl]-amide], the EC50 turned out to be 2210 nM.

For `CCC(CC)n1c(Cc2cccs2)nc2cc(C(=O)N[C@@H](CC(C)C)C(=O)NC3COC4(CCCCC4)C3)ccc21` (stereo partly drawn) [Example 397, 1-(1-Ethyl-propyl)-2-thiophen-2-ylmethyl-1H-benzoimidazole-5-carboxylic acid [(S)-3-methyl-1-(1-oxa-spiro[4.5]dec-3-ylcarbamoyl)-butyl]-amide], the EC50 amounted to 8740 nM.

With `CCC(CC)n1c(Cc2cccs2)nc2cc(C(=O)NC(CC3CCCCCC3)C(=O)O)ccc21` (single isomer, unassigned) [Example 449], the EC50 stood at 853 nM.

Take `CCC(CC)n1c(Cc2cccs2)nc2cc(C(=O)N[C@@H](CC(C)C)C(=O)N3CC(C)OC(C)C3)ccc21` (stereo partly drawn) [Example 229, 1-(1-Ethyl-propyl)-2-thiophen-2-ylmethyl-1H-benzoimidazole-5-carboxylic acid [(S)-1-(2,6-dimethyl-morpholine-4-carbonyl)-3-methyl-butyl]-amide]: the EC50 worked out at 1940 nM.

With `CCC(CC)n1c(Cc2cccs2)nc2cc(C(=O)N[C@@H](CC(C)C)C(=O)NCCCN3CCOCC3)ccc21` [Example 234, 1-(1-Ethyl-propyl)-2-thiophen-2-ylmethyl-1H-benzoimidazole-5-carboxylic acid [(S)-3-methyl-1-(3-morpholin-4-yl-propylcarbamoyl)-butyl]-amide], the EC50 is 344 nM.

As to `CCC(CC)n1c(Cc2cccs2)nc2cc(C(=O)NC(CC(C)(C)C)C(=O)O)ccc21` (stereo not shown) [Example 126, 2-{[1-(1-Ethyl-propyl)-2-thiophen-2-ylmethyl-1H-benzoimidazole-5-carbonyl]-amino}-4,4-dimethyl-pentanoic acid], the EC50 was found to be 3930 nM.

Turning to `CCC(CC)n1c(Cc2cscn2)nc2cc(C(=O)N[C@H](CO)CC(C)C)ccc21` [Example 205, 1-(1-Ethyl-propyl)-2-thiazol-4-ylmethyl-1H-benzoimidazole-5-carboxylic acid ((S)-1-hydroxymethyl-3-methyl-butyl)-amide], the half-maximal effective concentration (EC50) came out at 1750 nM.

As to `CCCN(CCC)C1CCN(C(=O)[C@H](CC(C)C)NC(=O)c2ccc3c(c2)nc(Cc2cccs2)n3C(CC)CC)CC1` [Example 284, 1-(1-Ethyl-propyl)-2-thiophen-2-ylmethyl-1H-benzoimidazole-5-carboxylic acid [(S)-1-(4-dipropylamino-piperidine-1-carbonyl)-3-methyl-butyl]-amide], the EC50 came to 252 nM.

On to `CCC(CC)n1c(Cc2ccco2)nc2cc(C(=O)NC(C)(CC(C)C)C(=O)O)ccc21` (stereo not shown) [Example 13, 2-{[1-(1-Ethyl-propyl)-2-furan-2-ylmethyl-1H-benzoimidazole-5-carbonyl]-amino}-2,4-dimethyl-pentanoic acid], for which the EC50 came out at 535 nM.

Take `CCC(C)Cn1c(CC2CCCCC2)nc2cc(C(=O)N[C@@H](CC3CCCCC3)C(=O)O)ccc21` (stereo partly drawn) [Example 133, (S)-3-Cyclohexyl-2-{[2-cyclohexylmethyl-1-(2-methyl-butyl)-1H-benzoimidazole-5-carbonyl]-amino}-propionic acid]: the EC50 worked out at 2350 nM.

For orientation: EC50 means the concentration giving half of the maximal effect.

For the origin of these results see patent publication US9156796B2, “Benzoimidazole-carboxylic acid amide derivatives as APJ receptor modulators” (SANOFI, priority 2013, dated 2015).
